Values of other authors, collected in PMC8154576, “GPR120/FFAR4 Pharmacology: Focus on Agonists in Type 2 Diabetes Mellitus Drug Discovery” (Journal of Medicinal Chemistry, 2021).
Like-named read-outs stand apart in the source and are kept apart here. Marks after values point to notes of the source that are not given here.

What was measured:
[1] = tested on: mice; conditions: for reduction of plasma glucose, ΔAUC in OGTT: C57BL/6DIO mice
[2] = tested on: lean mice; design: method as in PMID 29206860; conditions: pretreatment
[3] = tested on: GPR120; design: method as in PMID 29206860; conditions: cAMP assay in a CHO cell line; read-out: EC50 increase of cAMP levels
[4] = tested on: hGPR120
[5] = tested on: muGPR40
[6] = tested on: STC-1 cells; conditions: enteroendocrine STC-1 cell line
[7] = tested on: hGPR40; conditions: for EC50: read-out: hGPR40 EC50 (Ca2+)
[8] = tested on: mouse GPR120
[9] = tested on: hGPR120; conditions: for EC50: read-out: hGPR120 EC50 (β-arr)
[10] = tested on: GPR120
[11] = tested on: MCF-7 and MDA-MB-231 cell lines; design: method as in PMID 26821052
[12] = tested on: pancreatic cancer PANC-1 cells; design: method as in PMID 26282200
[13] = not given; remark: listed apart in the source
[14] = not given; remark: listed apart in the source
[15] = tested on: hGPR120; conditions: for EC50: Table 3, read-out: hGPR120 EC50 (IP1)
[16] = tested on: mGPR120; design: method as in PMID 27815121
[17] = tested on: hGPR40
[18] = tested on: DIO mice
[19] = tested on: C57BL/6J mice; conditions: for reduction of plasma glucose, ΔAUC in IPGTT: C57BL/6J mice
[20] = tested on: human intestinal NCI-H716 cell line; design: method as in PMID 24881566
[21] = tested on: MIN6 cell line; design: method as in PMID 24881566; conditions: glucose 25 mM, compared to glibenclamide
[22] = design: method as in PMID 24881566
[23] = tested on: rat’s anterior pituitary adenoma GH3 cells; design: method as in PMID 29843779
[24] = design: method as in PMID 27570890
[25] = tested on: db/db mice; design: method as in PMID 28148462; conditions: at the same concentrations (10 and 100 mg/kg), vehicle 276 mg/dL
[26] = tested on: Zucker diabetic fatty rats; design: method as in PMID 28148462; conditions: 2 weeks, vehicle 192 mg/dL
[27] = tested on: MDA-MB-231 cell line; design: method as in PMID 28456993
[28] = Table 2, read-out: hGPR120 EC50 (Ca2+)
[29] = Table 3, read-out: hGPR40 EC50 (IP1)

C#Cc1cc(Oc2cccnc2)cc(N2Cc3ccccc3S2(=O)=O)c1 [Compound 33]
glucose levels in OGTT ([1]; lean male mice): reduce dose-dependently glucose levels | insulin concentration in IVGTT [2]: increase of insulin concentration | EC50 [3]: 0.06 µM | EC50 ([4]; Table 4, read-out: hGPR120 EC50 (Ca2+)): 0.12 µM | activity against mGPR40 [5]: no activity | GLP-1 secretion [6]: boost GLP-1 secretion

O=C(O)CCc1cc(F)c(OCc2c(C(F)(F)F)ccn2-c2ccc(Cl)cc2)c(F)c1 [Compound 22]
reduction in glucose levels in OGTT ([1]; diet-induced obese mice, 3 mg/kg, vs saxagliptin 1 mg/kg): comparable to saxagliptin | EC50 [4, 28]: 0.08 µM | GPR120 selectivity over GPR40, human ([4]; calcium assay): 42 fold | EC50 ([4]; low-expressing endogenous HT-29 cell line, read-out: EC50 hGPR120 calcium assay): 0.137 µM | EC50 ([7]; Table 2): 3.34 µM | GPR120 selectivity over GPR40, mouse ([8]; calcium assay): 18 fold | EC50 ([8]; read-out: EC50 GPR120 calcium assay in mouse): 0.193 µM | clearance (mouse, rat, and dog): low clearance | half-life (mouse, rat, and dog): suitable half-life | EC50 ([9]; Table 2): 0.069 µM

CCCCC/C=C\C/C=C\CCCCCCCC(=O)OC [1’s methyl ester]
GPR120 activity in vitro [10]: inactive in vitro

O=C(O)CCc1cc(F)c(OCc2c(-c3ccc(Cl)cc3F)nsc2C(F)(F)F)c(F)c1 [Compound 21]
reduction of plasma glucose, ΔAUC in OGTT ([1]; 1 mg/kg): 61% | reduction of plasma glucose, ΔAUC in OGTT ([1]; 3 mg/kg): 83% | EC50 [4, 28]: 0.042 µM | EC50 ([7]; Table 2): > 5 µM | pharmacokinetic profile: good pharmacokinetic profile | EC50 ([9]; Table 2): 0.143 µM

Cc1ccc(-n2nc(C)c3cnc(-c4ccc([C@@H]5C[C@H]5C(=O)O)cc4F)cc32)nc1 [Compound 28]
decrease in oral glucose excursion in OGTT ([1]; C57BL/6J mice): 45% | effect on glucose excursion in OGTT ([1]; GPR120 KO mice): no effect | reduction of glucose excursion in OGTT ([1]; wild-type mice): 47% | EC50 ([4]; Table 3, read-out: hGPR120 EC50 (Ca2+)): 0.74 µM | EC50 ([7]; Table 3): > 100 µM | EC50 ([5]; FLIPR format, overexpressed mouse GPR40 in cell line, unit inferred): > 100 µM | oral exposure: moderate oral exposure | selectivity over 30 several targets [13]: good selectivity

O=C(O)CCc1cc2cc(-c3cc(C(F)(F)F)ccc3F)ccc2o1 [Compound 23]
PK properties (oral bioavailability, half-life, plasma clearance) ([14]; mouse): suitable PK properties | blood glucose levels in OGTT ([1]; wild-type and GPR120 KO mice, 30 and 100 mg/kg): acute reduction of blood glucose levels | percentage of receptor activation, hGPR120 [15]: 73% | selectivity over hGPR40 [15]: 29 fold | EC50 [15]: 0.063 µM | percentage of receptor activation, mGPR120 [16]: 75% | EC50 ([17]; read-out: IP1 EC50 GPR40): 1.83 µM

O=C(O)CC1CCC2(CC1)CCN(c1cc(OC(F)(F)F)ccc1Cl)CC2 [Compound 26]
whole blood glucose levels in OGTT ([1]; lean mice (wild-type/GPR120 KO), 30 and 100 mg/kg): dose-dependently reduced whole blood glucose levels | insulin resistance (HOMA-IR) ([18]; hyperinsulinemic-euglycemic DIO mouse clamp, days 14 and 28): reduction in insulin resistance | EC50 [17, 29]: > 10 µM | unbound clearance (rat, mouse, dog, and Rhesus): too high unbound clearance

COC1CC(Oc2cc(F)c(F)c(-c3ccc4c(c3)CCC(CCC(=O)O)O4)c2)C1 (centres unmarked) [Compound 24]
in vivo efficacy in OGTT [1]: good in vivo efficacy | glucose levels in OGTT ([1]; 3 and 10 mg/kg): dose-dependently reduced glucose levels | EC50 [15]: 0.035 µM | EC50 [17, 29]: > 10 µM | half-life (several species): long half-life | oral bioavailability (several species): high oral bioavailability | EC50 ([9]; Table 3): 0.024 µM

OCCCc1c(F)cc(OCc2c(-c3ccc(Cl)cc3)csc2C(F)(F)F)cc1F [Compound 30]
outcome in OGTT ([1]; GPR120 DIO mice): positive outcomes | outcome in IPGTT ([19]; GPR120 C57BL6 mice): positive outcomes

COc1ccc(S(=O)(=O)Nc2c(C)cc(C)cc2C)cc1 [Compound 31]
GLP-1 secretion [20]: evoked GLP-1 secretion | hGPR120 pEC50 (Ca2+) ([4]; Table 4): 6.3 ^d | hGPR40 pEC50 (Ca2+) ([7]; Table 4): <4.5 ^d | insulin output in GSIS [21]: dose-dependently increased insulin output | selectivity for GPR120 over more than 65 targets, including GPR40, GPR43, GPR41 [13]: at least 100 fold | solubility in simulated intestinal fluid (FASSIF) [22]: weak solubility

CCc1ccc(-c2noc(C(F)(F)F)c2COc2c(F)cc(CCC(=O)O)cc2F)cc1 [Compound 20]
pharmacokinetic (PK) profile [14]: good pharmacokinetic (PK) profile | EC50 [4, 28]: 0.057 µM | reduction of plasma glucose, ΔAUC in IPGTT ([19]; 1 mg/kg): 30% | reduction of plasma glucose, ΔAUC in IPGTT ([19]; 3 mg/kg): 35% | reduction of plasma glucose, ΔAUC in IPGTT ([19]; 10 mg/kg): 54% | EC50 ([9]; Table 2): 0.06 µM

Fc1ccc(OC2CCC2)cc1-c1ccc2c(c1)CC[C@H](CCc1nnn[nH]1)O2 [Compound 25]
in vivo efficacy in OGTT [1]: good in vivo efficacy | EC50 [15]: 0.22 µM | EC50 [17, 29]: > 10 µM | EC50 ([9]; Table 3): 0.084 µM

CC(C)=CCC/C(C)=C/CC/C(C)=C/Cc1c(O)cc(C)c(C(=O)O)c1O [Compound 7, grifolic acid]
necrosis of GH3 cells [23]: dose- and time-dependently induced the necrosis

O=S1(=O)c2ccccc2CN1c1cc(F)cc(Oc2ccccn2)c1 [Compound 32]
glucose levels in OGTT ([1]; C57BL6 mice, 10 mg/kg orally, compared to vehicle control): decrease in glucose levels | hGPR120 pEC50 (Ca2+) ([4]; Table 4): 6.63 ^d | decrease in body weight, chronic study ([18]; DIO wild-type mice): 7–9% | glucose levels, chronic study ([18]; DIO wild-type mice): reduced glucose levels | effect in chronic study ([18]; mice lacking GPR120): no effect | solubility in PBS [24]: relatively low solubility | selectivity for GPR120 over GPR40 [10]: > 300 fold | hGPR120 pEC50 (β-arr) ([9]; Table 4): 6.91 ^d

N#C[C@@H]1C[C@@H]2C[C@@H]2N1C(=O)[C@@H](N)C12CC3CC(CC(O)(C3)C1)C2 [saxagliptin]
reduction of plasma glucose, ΔAUC in OGTT ([1]; 1 mg/kg): 87%

COc1ccc(C(F)(F)F)cc1COc1ccc(CCC(=O)O)cc1C [Compound 19]
oral bioavailability ([14]; C57BL/6J mice): excellent oral bioavailability | selectivity GPR120/GPR40, human [4]: 40 fold | EC50 ([4]; Table 1, read-out: hGPR120 EC50 (Ca2+)): 0.299 µM | EC50 ([7]; Table 1): 11.8 µM | glucose levels [25]: 106 mg/dL | selectivity GPR120/GPR40, mouse [8]: 80 fold | whole blood glucose levels ([26]; 10 mg/kg): 151 mg/dL | whole blood glucose levels ([26]; 100 mg/kg): 139 mg/dL

Cc1ccc(S(=O)(=O)NC2c3ccccc3Oc3ccccc32)cc1 [Compound 5]
migration induced by 1 [27]: inhibited
